{
  "source": "paper PMC4186439",
  "about": "“Characterization of a novel brain barrier ex vivo insect-based P-glycoprotein screening model” (Pharmacology Research & Perspectives, 2014)",
  "key": {"Pgp transporter [1]": {"system": "Pgp transporter", "experiment": "In vivo locust brain uptake (brain:hemolymph ratio) with or without co-injected Pgp inhibitor CsA", "details": "15 min after injection, data not shown"}, "locust brain barrier [2]": {"system": "locust brain barrier", "details": "for Concentration-dependent ex vivo brain uptake profile: exposure 3, 10, 30 and 100 μmol/L for 5 min, Fig. 3, n = 3"}, "Pgp transporter [3]": {"system": "Pgp transporter", "details": "3 and 10 μmol/L exposure, 5 min, with and without verapamil; Fig. 4; n = 3"}, "[4]": {"system": "Pgp transporter homologue (Mdr65)", "parameters": "method as in Mayer et al. [2009]", "details": "Drosophila melanogaster; ref Mayer et al. [2009]; cited from earlier work"}, "locust brain barrier [5]": {"system": "locust brain barrier", "parameters": "method as in Andersson et al. [2013]", "details": "locust ex vivo model; ref Andersson et al. [2013]; cited from earlier work"}, "[6]": {"details": "locust hemolymph; injection of 20 μL of 20 μmol/kg dose; samples at 0.08, 0.25, 0.75, 2 and 6 h; n = 6", "description": "Clearance of test compounds from the hemolymph was measured by repeated sampling of 10 μL hemolymph from the individual locust at 5, 15, 45, 120, and 360 min after intrahemolymph administration (20 μL) of the test compound solution (20 μmol/kg body weight). The 10 μL hemolymph samples were added to microcentrifuge tubes (Eppendorf) containing 40 μL ice-cold insect buffer."}, "Pgp efflux transport": {"system": "Pgp efflux transport", "details": "3 μmol/L, 5 min, without verapamil; Fig. 5; n = 3"}, "Pgp transporter [7]": {"system": "Pgp transporter", "details": "locust ex vivo and mouse Pgp KO/WT; ref Andersson et al. [2013]; Doran et al. [2005]; cited from earlier work"}, "Pgp transporter [8]": {"system": "Pgp transporter", "details": "locust brain barrier model; ref Nielsen et al. [2011]; cited from earlier work"}},
  "data": [
    {"smiles": "CN(C)C(=O)C(CCN1CCC(O)(c2ccc(Cl)cc2)CC1)(c1ccccc1)c1ccccc1", "note": "[Loperamide, loperamide]", "values": [
      {"measurement": "Hemolymph concentration when injected alone or co-injected with CsA", "setting": "Pgp transporter [1]", "result": "no difference"},
      {"measurement": "Concentration-dependent ex vivo brain uptake profile", "setting": "locust brain barrier [2]", "result": "increased more than linearly"},
      {"measurement": "Ex vivo brain uptake/concentration on co-exposure to verapamil", "setting": "Pgp transporter [3]", "result": "significantly increased"}
    ]},
    {"smiles": "COC(=O)c1ccccc1-c1c2ccc(=N)cc-2oc2cc(N)ccc12", "note": "[Rho123, rhodamine 123]", "values": [
      {"measurement": "Dm brain concentration when co-injected with the Pgp inhibitor CsA", "setting": "[4]", "result": "increases"}
    ]},
    {"smiles": "CC(NC(C)(C)C)C(=O)c1cccc(Cl)c1", "note": "(stereo not drawn) [Bupropion]", "values": [
      {"measurement": "Ex vivo brain uptake after increased exposure concentrations", "setting": "locust brain barrier [5]", "result": "more than dose-related"}
    ]},
    {"smiles": "CC(C)NCC(O)COc1cccc2ccccc12", "note": "(stereo not drawn) [Propranolol, propranolol]", "values": [
      {"measurement": "Elimination (drug elimination constant calculated from C = Coe^−kt)", "setting": "[6]", "result": "−0.98 ^1 h^−1"}
    ]},
    {"smiles": "NC(=O)N1c2ccccc2C=Cc2ccccc21", "note": "[Cbz, carbamazepine]", "values": [
      {"measurement": "Ratio of permeabilities (dynamic range of the locust ex vivo model)", "setting": "locust brain barrier [2]; Cbz (high permeability) versus atenolol (low permeability)", "result": "~64"},
      {"measurement": "Concentration-dependent ex vivo brain uptake profile", "setting": "locust brain barrier [2]", "result": "linear increase"},
      {"measurement": "Ex vivo brain uptake when exposure temperature raised from 2°C to 30°C", "setting": "Pgp efflux transport", "result": "markedly increased"}
    ]},
    {"smiles": "CN(C)CCCC1(c2ccc(F)cc2)OCc2cc(C#N)ccc21", "note": "(stereo not drawn) [citalopram]", "values": [
      {"measurement": "Pgp transporter efflux liability", "setting": "Pgp transporter [7]", "result": "affected by Pgp transporter efflux"}
    ]},
    {"smiles": "C=C[C@H]1C[N@@]2CC[C@H]1C[C@@H]2[C@@H](O)c1ccnc2ccc(OC)cc12", "note": "[Quinidine, quinidine]", "values": [
      {"measurement": "Uptake into the locust brain with Pgp inhibitor verapamil", "setting": "Pgp transporter [8]", "result": "significantly increased"},
      {"measurement": "Ex vivo brain uptake when exposure temperature raised from 2°C to 30°C", "setting": "Pgp efflux transport", "result": "corresponding increase in quinidine uptake was not seen"}
    ]}
  ]
}
